PMC7290078, “Agonist bias and agonist‐dependent antagonism at corticotrophin releasing factor receptors” (Pharmacology Research & Perspectives, 2020)
No end group written: not given here.

Experiments:
CRF2 receptor (hCRF2α) [1] = molecular target: T1, CRF2 receptor (hCRF2α) (Homo sapiens, UniProt Q13324); experiment: cAMP accumulation (LANCE) in Cos7 cells transfected with hCRF2α, agonist stimulation; type: cell-based
T1 construct: host or cells: Cos7 cells, transient transfection (PEI), pcDNA3.0/3.1 vector
T1 sequence (Q13324 1-411): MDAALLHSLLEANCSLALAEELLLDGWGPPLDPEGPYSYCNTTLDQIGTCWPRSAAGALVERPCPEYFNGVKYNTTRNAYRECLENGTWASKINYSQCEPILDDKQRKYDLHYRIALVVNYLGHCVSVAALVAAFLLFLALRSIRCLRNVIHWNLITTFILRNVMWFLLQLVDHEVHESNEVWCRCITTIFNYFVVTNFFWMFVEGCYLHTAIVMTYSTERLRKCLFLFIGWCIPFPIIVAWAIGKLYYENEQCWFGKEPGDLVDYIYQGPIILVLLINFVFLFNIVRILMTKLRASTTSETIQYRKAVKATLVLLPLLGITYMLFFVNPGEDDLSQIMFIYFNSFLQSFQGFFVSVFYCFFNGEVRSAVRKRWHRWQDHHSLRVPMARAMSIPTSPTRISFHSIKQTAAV
From the text: (§1) Plasmids containing hCRF1α and hCRF2α (GenBank accession numbers AY457172 and AY449734) were obtained from the cDNA Resource Centre (Bloomsburg University) and are referred to as CRF1 and CRF2 in this manuscript. Hemagglutinin (HA) epitope‐tagged human Calcitonin (CT) receptor (CT(a) splice variant) and myc‐tagged human RAMP1 were used as described previously. ^27 HA‐tagged human calcitonin receptor‐like receptor (CLR), N‐terminal FLAG‐tagged human RAMP3 and N‐terminal myc‐tagged human RAMP3 were a gift from Professor David Poyner (Aston University) and Professor Patrick Sexton (Monash University), respectively. N‐terminal FLAG‐tagged human RAMP2 was used as described previously. ^28 All receptors and RAMPs were cloned in pcDNA3.0 or pcDNA3.1 plasmid vectors. All plasmid inserts were sequenced at the Centre for Genomics, Proteomics and Metabolomics (University of Auckland) and the sequences were verified prior to use.
(§2) Cos7, HEK‐293S, and HEK‐293T cells were cultured as described previously. ^28 , ^29 Cos7 cells were originally supplied by the ATCC to Associate Professor Nigel Birch (University of Auckland). HEK‐293S cells were a gift from Professor David Poyner (Aston University) and HEK‐293T cells a gift from Professor John Taylor (University of Auckland). Briefly, all cell lines were cultured in Dulbecco's Modified Eagle Medium (DMEM) supplemented with 8% heat inactivated fetal bovine serum (FBS) and maintained in a humidified incubator at 37°C with 5% CO2. For transfection, cells were counted (Countess CounterTM; Life Technologies) and plated at a density of 20 000 cells per well in 96‐well plates. The cells were transiently transfected 48 hours prior to assaying using polyethylenimine (PEI), as described previously. ^28 , ^29 In all experiments a total of 0.25 μg DNA was transfected per well. In the majority of experiments 0.25 μg DNA of receptor‐containing plasmid or the pcDNA3.1 plasmid without an insert was used. For experiments involving RAMPs, 0.125 μg of receptor DNA and 0.125 μg of RAMP‐containing plasmid DNA were transfected to give a 1:1 ratio of receptor to RAMP. Where the RAMP or receptor were transfected alone, the ratio of DNA was made up with the pcDNA3.1 plasmid.
cAMP accumulation in Cos7 cells transfected with hCRF1α or hCRF2α receptors was measured using the LANCE cAMP detection assay kit (PerkinElmer Life and Analytical Sciences) as described previously. ^30 Briefly, culture media was removed and replaced with DMEM containing 0.1% bovine albumin serum (BSA) and 1 mmol/L 3‐isobutyl‐1‐methylxanthine (IBMX) for 30 minutes at 37°C. Cells were incubated for an additional 15 minutes at 37°C with media or agonist concentrations of 1 pmol/L to 1 µmol/L for agonist only assays or 10 pmol/L to 10 µmol/L concentrations for antagonist experiments. Antagonists were added simultaneously or immediately prior to the addition of agonists. To stop cell stimulation and extract cAMP, the contents of the wells were replaced with 50 µL absolute ethanol. Samples were left at −20°C for a minimum of 10 minutes. The ethanol was evaporated and replaced with 50 µL of cAMP detection buffer. Samples were shaken for 15 minutes before 5 µL cell lysate was transferred to a white 384‐well optiplate and processed for cAMP quantification as described previously. ^31 Samples were read using an Envision plate reader (PerkinElmer). cAMP concentrations were determined from a standard curve generated in duplicate.
In all experiments the position of peptides and antagonists (pharmacology) or transfected receptors (ELISAs) on assay plates was randomized during each independent experiment, which are independent biological replicates. In all cases, duplicate, triplicate, or quadruplicate technical replicates were conducted for each independent experiment.

CRF2 receptor (hCRF2α) [2] = molecular target: T1, CRF2 receptor (hCRF2α); experiment: IP1 accumulation (IP-one Gq) in Cos7 cells transfected with hCRF2α, agonist stimulation; type: cell-based
From the text: as §1, §2
The IP‐one Gq assay kit (Cisbio) was used to quantify accumulated myo‐inositol‐1‐phosphate (IP1), a by‐product of IP3 produced after receptor‐mediated Gαq activation in Cos7 and HEK‐293S cells. Briefly, culture media was removed and replaced with DMEM containing 0.1% BSA for 30 minutes at 37°C. Cells were then incubated with media containing 50 mmol/L lithium chloride (LiCl) for an additional 0‐120 minutes (time courses) or 90 minutes at 37°C in the presence or absence of an antagonist. Agonist concentrations of 1 pmol/L to 10 µmol/L were used for agonist only assays or 10 pmol/L to 10 µmol/L concentrations for antagonist experiments. After cell stimulation, 14 µL of stimulation buffer was added to each well. Three microlitres of each detection antibody were added in turn to the plate and incubated at room temperature for 1 hour. Fifteen microliters of sample was then transferred to a 384‐well optiplate and read by an Envision plate reader (PerkinElmer). IP1 concentrations were calculated from a standard curve generated in duplicate.
In all experiments the position of peptides and antagonists (pharmacology) or transfected receptors (ELISAs) on assay plates was randomized during each independent experiment, which are independent biological replicates. […]

Row | Substance | EC50 (CRF2 receptor (hCRF2α) [1]; cAMP, hCRF2α, Cos7, 15 min at 37°C, 1 mmol/L IBMX, 1 pmol/L to 1 µmol/L agonist, mean ± SEM, n = 5) [nM] | EC50 (CRF2 receptor (hCRF2α) [2]; IP1, hCRF2α, Cos7, 90 min at 37°C, 50 mmol/L LiCl, 1 pmol/L to 10 µmol/L agonist, mean ± SEM, n = 5) [nM] | concentration‐dependent increase in cAMP (CRF2 receptor (hCRF2α) [1]; CRF2 receptor) | ΔΔlog(τ/K A) (signaling bias) (CRF2 receptor (hCRF2α) [1]; cAMP (reference pathway), hCRF2α, reference agonist UCN1, mean ± SEM, n = 5) | Hill slope (CRF2 receptor (hCRF2α) [1]; cAMP, CRF2 receptor) | Δlog(τ/K A) (relative efficacy) (CRF2 receptor (hCRF2α) [1]; cAMP, hCRF2α, reference agonist UCN1, mean ± SEM, n = 5) | concentration‐dependent increase in IP1 accumulation (CRF2 receptor (hCRF2α) [2]; CRF2 receptor) | Hill slope (CRF2 receptor (hCRF2α) [2]; IP1, CRF2 receptor) | Δlog(τ/K A) (relative efficacy) (CRF2 receptor (hCRF2α) [2]; IP1, hCRF2α, reference agonist UCN1, mean ± SEM, n = 5) | ΔΔlog(τ/K A) (signaling bias) (CRF2 receptor (hCRF2α) [2]; IP1 relative to cAMP, hCRF2α, reference agonist UCN1, mean ± SEM, n = 5)
1 | DNPSLSIDLTFHLLRTLLELARTQSQRERAEQNRIIFDSV-NH2 [UCN1] | 0.0955 | 4.68 | – | – | – | – | – | – | – | –
2 | IVLSLDVPIGLLQILLEQARARAAREQATTNARILARVGHC-NH2 (C-terminus assumed) [UCN2] | – | – | concentration‐dependent increases | 0.00 ± 0.27 | not significantly different from one | −0.55 ± 0.19 | concentration‐dependent increases | not significantly different from one | −1.42 ± 0.13 | −0.87 ± 0.23
